# Test results as given in PubChem BioAssay (NCI).
#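 Protocol summary: plate cells (96-well), add compound at 5 concentrations, incubate 48 h, interpolate endpoints linearly. GI50 marks 50% less growth. TGI: concentration producing complete growth inhibition.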
# How the values were obtained:
# Assay in all cases: growth of human tumour cells (NCI), 48 h
# [1] = test system: 786-0 renal
# [2] = test system: A498 renal
# [3] = test system: A549 NSCLC
# [4] = test system: ACHN renal
# [5] = test system: BT-549 breast
# [6] = test system: CAKI-1 renal
# [7] = test system: CCRF-CEM leukemia
# [8] = test system: COLO 205 colon
# [9] = test system: DU-145 prostate
# [10] = test system: EKVX NSCLC
# [11] = test system: HCC-2998 colon
# [12] = test system: HCT-116 colon
# [13] = test system: HCT-15 colon
# [14] = test system: HL-60(TB) leukemia
# [15] = test system: HOP-62 NSCLC
# [16] = test system: HOP-92 NSCLC
# [17] = test system: HS 578T breast
# [18] = test system: HT29 colon
# [19] = test system: IGROV1 ovarian
# [20] = test system: K-562 leukemia
# [21] = test system: KM12 colon
# [22] = test system: LOX IMVI melanoma
# [23] = test system: M14 melanoma
# [24] = test system: MALME-3M melanoma
# [25] = test system: MCF7 breast
# [26] = test system: MDA-MB-231 breast
# [27] = test system: MDA-MB-435
# [28] = test system: MOLT-4 leukemia
# [29] = test system: NCI-H226 lung
# [30] = test system: NCI-H23 lung
# [31] = test system: NCI-H460 lung
# [32] = test system: NCI-H522 lung
# [33] = test system: NCI/ADR-RES ovarian
# [34] = test system: OVCAR-3 ovarian
# [35] = test system: OVCAR-4 ovarian
# [36] = test system: OVCAR-5 ovarian
# [37] = test system: OVCAR-8 ovarian
# [38] = test system: PC-3 prostate
# [39] = test system: RPMI-8226 leukemia
# [40] = test system: RXF 393 renal
# [41] = test system: SF-268 CNS
# [42] = test system: SF-295 CNS
# [43] = test system: SF-539 CNS
# [44] = test system: SK-MEL-2 melanoma
# [45] = test system: SK-MEL-28 melanoma
# [46] = test system: SK-MEL-5 melanoma
# [47] = test system: SK-OV-3 ovarian
# [48] = test system: SN12C renal
# [49] = test system: SNB-19 CNS
# [50] = test system: SNB-75 CNS
# [51] = test system: SR leukemia
# [52] = test system: SW-620 colon
# [53] = test system: T-47D breast
# [54] = test system: TK-10 renal
# [55] = test system: U251 CNS
# [56] = test system: UACC-257 melanoma
# [57] = test system: UACC-62 melanoma
# [58] = test system: UO-31 renal
smiles,measurement,setting,value
COc1ccc(/C=N/NC(=O)c2[nH]c3ccc(Br)cc3c2-c2ccccc2)s1,GI50,[1],152 nM
same,TGI,[1],> 100000 nM
same,GI50,[2],33800 nM
same,TGI,[2],> 100000 nM
same,GI50,[3],160 nM
same,TGI,[3],> 100000 nM
same,GI50,[4],169 nM
same,TGI,[4],> 52800 nM
same,GI50,[5],88.5 nM
same,TGI,[5],367 nM
same,GI50,[6],168 nM
same,TGI,[6],> 57300 nM
same,GI50,[7],121 nM
same,TGI,[7],> 100000 nM
same,GI50,[8],195 nM
same,TGI,[8],375 nM
same,GI50,[9],135 nM
same,TGI,[9],45700 nM
same,GI50,[10],3550 nM
same,TGI,[10],> 100000 nM
same,GI50,[11],349 nM
same,TGI,[11],> 71600 nM
same,GI50,[12],103 nM
same,GI50,[13],141 nM
same,TGI,[13],> 37000 nM
same,GI50,[14],77.8 nM
same,TGI,[14],2690 nM
same,GI50,[15],455 nM
same,TGI,[15],> 87800 nM
same,GI50,[16],1280 nM
same,TGI,[16],> 100000 nM
same,GI50,[17],1140 nM
same,TGI,[17],> 31400 nM
same,GI50,[18],84.6 nM
same,TGI,[18],3290 nM
same,GI50,[19],123 nM
same,TGI,[19],25200 nM
same,GI50,[20],113 nM
same,TGI,[20],> 100000 nM
same,GI50,[21],301 nM
same,TGI,[21],> 60500 nM
same,GI50,[22],38.4 nM
same,TGI,[22],> 100000 nM
same,GI50,[23],142 nM
same,TGI,[23],> 100000 nM
same,GI50,[24],148 nM
same,TGI,[24],> 70300 nM
same,GI50,[25],110 nM
same,TGI,[25],14400 nM
same,GI50,[26],336 nM
same,TGI,[26],15700 nM
same,GI50,[27],65.6 nM
same,TGI,[27],153 nM
same,GI50,[28],113 nM
same,TGI,[28],> 100000 nM
same,GI50,[29],115 nM
same,TGI,[29],30200 nM
same,GI50,[30],124 nM
same,TGI,[30],> 47700 nM
same,GI50,[31],246 nM
same,TGI,[31],3630 nM
same,GI50,[32],19.3 nM
same,TGI,[32],54.4 nM
same,GI50,[33],39.8 nM
same,TGI,[33],4360 nM
same,GI50,[34],249 nM
same,TGI,[34],823 nM
same,GI50,[35],224 nM
same,TGI,[35],57600 nM
same,GI50,[36],136 nM
same,TGI,[36],> 100000 nM
same,GI50,[37],59.3 nM
same,GI50,[38],263 nM
same,TGI,[38],> 89400 nM
same,GI50,[39],118 nM
same,TGI,[39],> 100000 nM
same,GI50,[40],299 nM
same,TGI,[40],910 nM
same,GI50,[41],532 nM
same,TGI,[41],> 100000 nM
same,GI50,[42],106 nM
same,TGI,[42],15100 nM
same,GI50,[43],72.4 nM
same,TGI,[43],206 nM
same,GI50,[44],93.5 nM
same,TGI,[44],36400 nM
same,GI50,[45],745 nM
same,TGI,[45],> 100000 nM
same,GI50,[46],101 nM
same,TGI,[46],394 nM
same,GI50,[47],219 nM
same,TGI,[47],99400 nM
same,GI50,[48],116 nM
same,TGI,[48],> 42100 nM
same,GI50,[49],275 nM
same,TGI,[49],> 95200 nM
same,GI50,[50],148 nM
same,TGI,[50],20000 nM
same,GI50,[51],102 nM
same,TGI,[51],> 100000 nM
same,GI50,[52],147 nM
same,TGI,[52],> 100000 nM
same,GI50,[53],7100 nM
same,TGI,[53],> 100000 nM
same,GI50,[54],3720 nM
same,TGI,[54],> 75100 nM
same,GI50,[55],259 nM
same,TGI,[55],> 100000 nM
same,GI50,[56],283 nM
same,TGI,[56],> 100000 nM
same,GI50,[57],146 nM
same,TGI,[57],> 51500 nM
same,GI50,[58],188 nM
same,TGI,[58],> 100000 nM
